Laboratory results reported in patent US7517676B2, “Human cyclooxygenase-3 enzyme and uses thereof” (Janssen Pharmaceutica N.V., priority 2003, dated 2009).

Experiments:
[1] = molecular target: T1, human COX-3a (Homo sapiens, UniProt P23219); assay: COX activity assay: PGF2α formation from arachidonic acid by microsomes of Sf9 cells expressing hCOX-3a; format: biochemical; conditions: synthesis of PGF2α from arachidonic acid; 20 μg microsomal membrane protein, room temperature, 5 minutes, pH 8.0
T1 construct: the full length human COX-3a cDNA was subcloned into pFastBac; made in house; host or cells: Sf9 insect cells (baculovirus, pFastBac); microsomal fraction
T1 sequence (P23219 1-630 isoform P23219-6): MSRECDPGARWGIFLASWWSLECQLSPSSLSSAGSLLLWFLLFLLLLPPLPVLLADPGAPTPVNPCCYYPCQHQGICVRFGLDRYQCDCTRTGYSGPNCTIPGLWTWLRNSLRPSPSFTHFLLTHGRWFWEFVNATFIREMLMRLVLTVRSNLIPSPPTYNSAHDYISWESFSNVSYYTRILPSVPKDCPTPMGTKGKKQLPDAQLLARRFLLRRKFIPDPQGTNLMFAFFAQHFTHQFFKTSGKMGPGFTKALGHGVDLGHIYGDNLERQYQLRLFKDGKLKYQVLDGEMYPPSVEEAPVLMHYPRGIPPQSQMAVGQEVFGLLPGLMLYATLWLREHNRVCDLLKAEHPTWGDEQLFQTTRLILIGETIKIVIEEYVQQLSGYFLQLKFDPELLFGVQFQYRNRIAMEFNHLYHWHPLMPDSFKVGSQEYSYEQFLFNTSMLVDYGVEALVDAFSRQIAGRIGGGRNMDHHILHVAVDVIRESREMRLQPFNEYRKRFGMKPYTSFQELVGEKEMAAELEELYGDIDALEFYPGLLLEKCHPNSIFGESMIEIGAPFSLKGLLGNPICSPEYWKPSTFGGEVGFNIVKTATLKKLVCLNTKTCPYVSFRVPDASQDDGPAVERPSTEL
Method: Microsomal protein fractions were prepared from Sf9 cells infected with the hCOX-3a recombinant baculovirus. Microsomal membrane protein (20 μg) was incubated with the indicated concentration of arachidonic acid in a volume of 150 μl buffer containing 0.1 M Tris-HCl (pH=8.0), 5 mM EDTA, 2 mM phenol and 1.5 μM […]. After incubating at room temperature for 5 minutes, the reaction was terminated by the addition of 40 μl of 1 N HCl with mixing. Samples were neutralized with 40 μl of 1 N NaOH. The formation of the PGF2α product was determined using a PGF2α immunoassay kit (Assay Designs, Inc.), as directed by the manufacturer.

[2] = molecular target: T2, dog COX-3 (Canis lupus familiaris, UniProt Q8HZR1); conditions: cited from earlier work
T2 sequence (Q8HZR1 1-633 isoform Q8HZR1-2): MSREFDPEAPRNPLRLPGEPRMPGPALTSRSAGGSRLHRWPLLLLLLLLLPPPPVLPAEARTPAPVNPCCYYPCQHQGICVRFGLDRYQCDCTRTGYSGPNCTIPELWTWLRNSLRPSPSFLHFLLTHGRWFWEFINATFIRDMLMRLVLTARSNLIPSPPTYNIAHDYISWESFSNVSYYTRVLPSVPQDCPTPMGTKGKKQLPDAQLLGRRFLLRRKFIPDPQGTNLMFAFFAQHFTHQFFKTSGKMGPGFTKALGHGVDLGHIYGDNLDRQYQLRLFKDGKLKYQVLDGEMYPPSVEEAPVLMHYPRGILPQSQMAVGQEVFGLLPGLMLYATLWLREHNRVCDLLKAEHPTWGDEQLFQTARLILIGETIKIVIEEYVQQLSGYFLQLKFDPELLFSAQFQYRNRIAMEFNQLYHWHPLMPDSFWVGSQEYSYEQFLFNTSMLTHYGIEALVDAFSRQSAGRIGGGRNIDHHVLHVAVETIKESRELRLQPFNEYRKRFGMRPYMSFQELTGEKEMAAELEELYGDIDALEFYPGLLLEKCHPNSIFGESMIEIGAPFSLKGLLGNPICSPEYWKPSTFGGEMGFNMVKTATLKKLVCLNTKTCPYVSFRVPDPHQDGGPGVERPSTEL

[3] = system: ovarian cancer; conditions: women who reported taking acetaminophen daily; prospective study; cited from earlier work
[4] = substrate concentration of 5 mM

Compound CCCCC/C=C\C/C=C\C/C=C\C/C=C\CCCC(=O)O [arachidonic acid] has a Km [1] of 0.54 µM and a Vmax [1] of 3.07 pmol/mg/min.
For CCOc1ccc(NC(C)=O)cc1 [phenacetin], the “inhibition of dog COX-3 compared with murine COX-1 and -2” value [2] is listed as “selectively inhibited”.
For Cc1c(N(C)CS(=O)(=O)[O-])c(=O)n(-c2ccccc2)n1C.[Na+] [dipyrone], the “inhibition of dog COX-3 compared with murine COX-1 and -2” value [2] is listed as “selectively inhibited”.
For Cc1cc(=O)n(-c2ccccc2)n1C [antipyrine], the “inhibition of dog COX-3 compared with murine COX-1 and -2” value [2] is given as “selectively inhibited”.
In the case of CC(=O)Nc1ccc(O)cc1 [acetaminophen], the “lower death rate from ovarian cancer than women reporting no use” value [3] is given as 45%, the “inhibition of dog COX-3 compared with murine COX-1 and -2” value [2] is given as “selectively inhibited” and the “selectivity for inhibition of dog COX-3 versus murine COX-1” value [2, 4] is given as 2 fold. For the same compound, the “selectivity for inhibition of dog COX-3 versus murine COX-2” value [2, 4] was 100 fold.
